Experiment: log P
Type: physicochemical
Conditions: for logP: octanol/water
Description: The term “log P” refers to the partition coefficient of a compound. The partition coefficient is the ratio of concentrations of un-ionized compound in each of two solution phases, for example, octanol and water. To measure the partition coefficient of ionizable solute compounds, the pH of the aqueous phase is adjusted such that the predominant form of the compound is un-ionized. The logarithm of the ratio of concentrations of the un-ionized solute compound in the solvents is called log P. The log P is a measure of lipophilicity. For example, log Poct/wat=log([solute]octanol/[solute]un-ionized,water).
Combined Results for particular compounds described herein, with respect to log P, membrane trafficking (uM), sigma-2 receptor affinity, sigma-1 receptor affinity microsomal stability in mouse liver microsomes (MLM) (t1/2, min), t1/2 normalized to CT)10914 and in vitro toxicity potassium channel hERG (IC50, nM) are provided in Table 1: […]

With COC[C@H]1CCCN1C(C=C(C)C)CC(C)(C)c1ccc(Cl)cc1 (stereo partly shown) [Compound 246] the “log P” value was 5.68.

For COC[C@H]1CCCN1C(C=C(C)C)CC(C)(C)c1ccc(C(F)(F)F)cc1 (stereo partly shown) [Compound 247], the “log P” value was 5.95.

For CCOC(=O)C1CCN(C(C=C(C)C)CC(C)(C)c2ccc(Cl)cc2)CC1 (stereo not shown) [Compound 248], the “log P” value was 5.84.

With COC[C@H]1CCCN1C(C=C(C)C)CC(C)(C)c1ccc(F)cc1 (stereo partly shown) [Compound 251] the “log P” value was 5.22.

With COc1cc(CCC(C)(C)N2Cc3cccc(C(=O)N4CCN(C(=O)CN(C)C)CC4)c3C2)ccc1O [Compound 258] the “log P” value was 2.62.

In the case of COc1cc(CCC(C)(C)N2Cc3cccc(C(=O)N4CCN(C(=O)[C@@H](N)Cc5ccccc5)CC4)c3C2)ccc1O [Compound 259], the “log P” value is reported as 4.03.

For COc1cc(CCC(C)(C)N2Cc3cccc(C(=O)N4CCN(C(=O)[C@@H]5CCCN5)CC4)c3C2)ccc1O [Compound 260], the “log P” value was 2.46.

In the case of COCCOCCC1CCN([C@H](C=C(C)C)CC(C)(C)c2ccc(C(F)(F)F)cc2)CC1 [Compound 263], the “log P” value is reported as 6.28.

With COCCOCCC1CCN([C@@H](C=C(C)C)CC(C)(C)c2ccc(C(F)(F)F)cc2)CC1 [Compound 264] the “log P” value was 6.28.

For CC(C)=C[C@H](CC(C)(C)c1ccc(C(F)(F)F)cc1)N1CCC(C)(O)CC1 [Compound 265], the “log P” value was 5.13.

In the case of CC(C)=C[C@@H](CC(C)(C)c1ccc(C(F)(F)F)cc1)N1CCC(C)(O)CC1 [Compound 266], the “log P” value is reported as 5.13.

In the case of CCOC(=O)C1CCN(C(C=C(C)C)CC(C)(C)c2ccc(F)cc2)CC1 (stereo not shown) [Compound 267], the “log P” value is reported as 5.37.

With CCOC(=O)C1CCN(C(C)CC(C)(C)c2ccc(Cl)cc2)CC1 (stereo not shown) [Compound 268] the “log P” value was 4.83.

In the case of COc1cc(CCC(C)(C)N2Cc3cccc(C(=O)N4CCN(C(=O)[C@H](C)N)CC4)c3C2)ccc1O [Compound 269], the “log P” value is reported as 2.2.

For COc1cc(CCC(C)(C)N2Cc3cccc(C(=O)N4CCN(C(=O)CN)CC4)c3C2)ccc1O [Compound 270], the “log P” value was 1.81.

With COc1cc(CCC(C)(C)N2Cc3cccc(C(=O)N4CCN(C(=O)C(Cc5ccccc5)N(C)C)CC4)c3C2)ccc1O (stereo not shown) [Compound 271] the “log P” value was 4.85.

For COC(=O)N1CCN(C(=O)c2cccc3c2CN(C(C)(C)CCc2ccc(O)c(OC)c2)C3)CC1 [Compound 272], the “log P” value was 3.35.

With COc1cc(CCC(C)(C)N2Cc3cccc(C(=O)N4CCN(C(=O)[C@@H]5CCCN5C)CC4)c3C2)ccc1O [Compound 274] the “log P” value was 3.24.

In the case of COC[C@@H]1CCCN1C(C=C(C)C)CC(C)(C)c1ccc(C(F)(F)F)cc1 (stereo partly shown) [Compound 275], the “log P” value is reported as 5.95.

In the case of COC[C@@H]1CCCN1C(C)CC(C)(C)c1ccc(C(F)(F)F)cc1 (stereo partly shown) [Compound 276], the “log P” value is reported as 4.95.

With CCOC(=O)C1CCN(C(C)CC(C)(C)c2ccc(C(F)(F)F)cc2)CC1 (stereo not shown) [Compound 277] the “log P” value was 5.11.

For CCOC(=O)C1CCN(C(C=C(C)C)CC(C)(C)c2ccccc2)CC1 (stereo not shown) [Compound 278], the “log P” value was 5.23.

With COc1cc(CCC(C)(C)N2Cc3cccc(C(=O)N4CCN(C(=O)CNC(C)=O)CC4)c3C2)ccc1O [Compound 279] the “log P” value was 1.63.

In the case of COc1cc(CCC(C)(C)N2Cc3cccc(C(=O)N4CCN(C(=O)[C@@H](Cc5ccccc5)NC(C)=O)CC4)c3C2)ccc1O [Compound 280], the “log P” value is reported as 3.85.

In the case of COc1cc(CCC(C)(C)N2Cc3cccc(C(=O)N4CCN(C(=O)[C@H](C)O)CC4)c3C2)ccc1O [Compound 281], the “log P” value is reported as 2.48.

For COc1cc(CCC(C)(C)N2Cc3cccc(C(=O)N4CCN(C(=O)[C@@H]5CCCN5C(C)=O)CC4)c3C2)ccc1O [Compound 282], the “log P” value was 2.47.

In the case of CC(C)(CCN1CCC(CO)CC1)c1ccc(Cl)cc1 [Compound 283], the “log P” value is reported as 3.62.

With CC(C)(CCN1CCC(CCO)CC1)c1ccc(Cl)cc1 [Compound 284] the “log P” value was 3.98.

In the case of CC(C)(CCN1CCC(O)(c2ccccc2)CC1)c1ccc(Cl)cc1 [Compound 285], the “log P” value is reported as 4.81.

In the case of CCOC(=O)C1CCN(C(C=C(C)C)CC(C)(C)c2ccc(C(F)(F)F)cc2)CC1 (stereo not shown) [Compound 286], the “log P” value is reported as 6.11.

In the case of CCOC(=O)C1CCN(CCC(C)(C)c2ccc(Cl)cc2)CC1 [Compound 287], the “log P” value is reported as 4.41.

With CC(C)(CCN1CC[C@@H](O)C1)c1ccc(Cl)cc1 [Compound 288] the “log P” value was 3.1.

For COC[C@@H]1CCCN1CCC(C)(C)c1ccc(Cl)cc1 [Compound 289], the “log P” value was 4.26.

For COC(=O)[C@H]1CCCN1CCC(C)(C)c1ccc(Cl)cc1 [Compound 290], the “log P” value was 4.08.

For COC(=O)C1CCN(CCC(C)(C)c2ccc(Cl)cc2)CC1 [Compound 291], the “log P” value was 4.06.

In the case of COC(=O)[C@@H]1CCCN1CCC(C)(C)c1ccccc1 [Compound 293], the “log P” value is reported as 3.48.

For COC(=O)[C@H]1CCCN1CCC(C)(C)c1ccccc1 [Compound 294], the “log P” value was 3.48.

For COC(=O)C1CCN(CCC(C)(C)c2ccccc2)CC1 [Compound 295], the “log P” value was 3.45.

With CC1(O)CCN(CCC(C)(C)c2ccccc2)CC1 [Compound 296] the “log P” value was 2.83.

With CC(C)(CCN1CCC(C)(c2ccccc2)CC1)c1ccccc1 [Compound 297] the “log P” value was 5.81.

For COC[C@H]1CCCN1CCC(C)(C)c1ccc(Cl)cc1 [Compound 298], the “log P” value was 4.26.

With CCOC(=O)C1CCN(CCC(C)(C)c2ccccc2)CC1 [Compound 299] the “log P” value was 3.81.

For COC[C@H]1CCCN1CCC(C)(C)c1ccccc1 [Compound 300], the “log P” value was 3.65.

In the case of CC(C)(CCN1CC[C@@H](O)C1)c1ccccc1 [Compound 301], the “log P” value is reported as 2.49.

In the case of COC[C@@H]1CCCN1CCC(C)(C)c1ccccc1 [Compound 302], the “log P” value is reported as 3.65.

For COCCOCCC1CCN(CCC(C)(C)c2ccc(Cl)cc2)CC1 [Compound 303], the “log P” value was 4.58.

In the case of CC(C)(CCN1CCC(CCO)CC1)c1ccccc1 [Compound 304], the “log P” value is reported as 3.38.

With COc1cc(CCC(C)(C)N2Cc3cccc(C(=O)N4CCN(C(=O)OCCOC(C)=O)CC4)c3C2)ccc1O [Compound 305] the “log P” value was 3.1.

With CC(C)(CCN1CCC(CO)CC1)c1ccccc1 [Compound 308] the “log P” value was 3.01.

For COc1cc(CCC(C)(C)N2Cc3cccc(C(=O)N4CCN(C(=O)OCc5oc(=O)oc5C)CC4)c3C2)ccc1O [Compound 309], the “log P” value was 3.96.

With COC1CCN(CCC(C)(C)c2ccccc2)CC1 [Compound 310] the “log P” value was 3.2.

In the case of CCOC(=O)C1CCN(CCC(C)(C)c2ccc(C(F)(F)F)cc2)CC1 [Compound 311], the “log P” value is reported as 4.69.

In the case of COC[C@H]1CCCN1CCC(C)(C)c1ccc(C(F)(F)F)cc1 [Compound 312], the “log P” value is reported as 4.53.

With CC(C)(CCN1CCC(C2CCOCC2)CC1)c1ccccc1 [Compound 313] the “log P” value was 4.28.

In the case of COCCOCCC1CCN(CCC(C)(C)c2ccc(C(F)(F)F)cc2)CC1 [Compound 314], the “log P” value is reported as 4.85.

In the case of CC(C)(CCN1CC[C@@H](O)C1)c1ccc(C(F)(F)F)cc1 [Compound 315], the “log P” value is reported as 3.37.

In the case of CC(C)(CCN1CCC(C)(c2ccccc2)CC1)c1ccc(F)cc1 [Compound 316], the “log P” value is reported as 4.34.

In the case of COC[C@H]1CCCN1CCC(C)(C)c1ccc(F)cc1 [Compound 318], the “log P” value is reported as 3.8.

With COC[C@@H]1CCCN1CCC(C)(C)c1ccc(F)cc1 [Compound 319] the “log P” value was 3.8.

In the case of COC(=O)C1CCCN1CCC(C)(C)c1ccc(F)cc1 (stereo not shown) [Compound 320], the “log P” value is reported as 3.62.

With COCCCC1CCN(CCC(C)(C)c2ccc(F)cc2)CC1 [Compound 321] the “log P” value was 4.61.

In the case of CCOC(=O)C1CCN(CCC(C)(C)c2ccc(F)cc2)CC1 [Compound 322], the “log P” value is reported as 3.95.

In the case of C[C@@H]1CCN(CCC(C)(C)c2ccc(F)cc2)C1 [Compound 323], the “log P” value is reported as 4.15.

For COCCCC1CCN(CCC(C)(C)c2ccc(Cl)cc2)CC1 [Compound 324], the “log P” value was 5.07.

For COCCCC1CCN(CCC(C)(C)c2ccccc2)CC1 [Compound 325], the “log P” value was 4.47.

In the case of COC(=O)C1CCN(CCC(C)(C)c2ccc(F)cc2)CC1 [Compound 326], the “log P” value is reported as 3.6.

In the case of COC1CCN(CCC(C)(C)c2ccc(C(F)(F)F)cc2)CC1 [Example 191], the logP is reported as 4.07.

Work on CC(C)(CCN1CCC(CO)CC1)c1ccc(C(F)(F)F)cc1 [Example 306] yielded a logP of 3.89.

CC(C)(CCN1CCC(O)(c2ccccc2)CC1)c1ccc(C(F)(F)F)cc1 [Example 307] showed a logP of 5.08.

In the case of COC[C@@H]1CCCN1CCC(C)(C)c1ccc(C(F)(F)F)cc1 [Example 317], the logP is reported as 4.53.

Reference: US11214540B2, “Compositions for treating neurodegenerative diseases” (COGNITION THERAPEUTICS, INC., priority 2017, dated 2022)
